Experimental findings from PubChem BioAssay (NCI) are described below.

SMILES strings stand for the structures.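 All cell lines were grown in 96-well plates and treated with compound for 48 hours. Here, GI50 denotes the concentration required for 50% inhibition of growth. The concentration for full growth arrest is given as TGI.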

Common to all, as to assay: DTP human tumour cell line panel, 48 h
The subject of test [1] is KM12 colon.
Test [2] concerns MOLT-4 leukemia.
The subject of test [3] is NCI-H522 lung.
In test [4] the test system is OVCAR-3 ovarian.
For test [5], the system named is OVCAR-8 ovarian.
For test [6], the system named is RPMI-8226 leukemia.
Test [7] deals with SK-MEL-28 melanoma.
The subject of test [8] is SW-620 colon.
The subject of test [9] is 786-0 renal.
For test [10], the system named is HCT-116 colon.

Turning to `O=c1cnn(CCOCP(=O)(O)O)c(=O)[nH]1`, the TGI in test [1], in test [2], in [3], in test [4], in [5] and in test [6] was more than 100 µM in each case. Besides, the TGI in test [7] and in [8] was more than 100 µM each time.
Turning to `CC1=NC(=Cc2ccc([N+](=O)[O-])cc2)C(=O)N1n1c(-c2ccccc2)nc2ccccc2c1=O`, the TGI in test [9] is more than 100 µM; in [10] it was more than 100 µM; in test [1], more than 100 µM; in test [2] it was 72.5 µM; in test [3] it was 74.5 µM; in [5] it was more than 100 µM. Besides, the results for the TGI in test [6], in test [7] and in test [8] were 53.6 µM, more than 100 µM and more than 100 µM, respectively.
With `CC(=O)[CH-]C(=O)c1ccccc1.CC(=O)[CH-]C(=O)c1ccccc1.C[C@]12CCC(=O)C=C1CC[C@@H]1C2CC[C@@]2(C)C1CC[C@]2(C)[O-].C[C@]12CCC(=O)C=C1CC[C@@H]1C2CC[C@@]2(C)C1CC[C@]2(C)[O-].Cl.[Ti+4]` (some centres undefined), the GI50 in test [10] was 22.2 µM; in test [1] it was 13.5 µM; in test [2], 12.5 µM; in test [3] it was 11.4 µM; in test [4] it was 27.9 µM; in test [5], 20.4 µM. Also, the GI50 in [6] is 15.4 µM; in test [7] it was 11.5 µM; in test [8] it was 3.91 µM. Further, the TGI in [10] was more than 100 µM; in [1] it was 71.3 µM; in [2] it was more than 100 µM; in test [3], 35.7 µM; in test [4], more than 100 µM; in test [5], 77.5 µM. The TGI is more than 100 µM in [6], 43 µM in [7] and 30 µM in [8].
`CCc1ccccc1NNc1cc(=O)[nH]c(=O)[nH]1`: the concentration for total growth inhibition (TGI) in test [9] was 32.5 µM; in test [10], 31.1 µM; in [1], 36 µM; in test [2], 85.7 µM; in test [4] it was 30.8 µM; in test [5], 51.6 µM. In addition, the TGI is more than 100 µM in test [6], 38 µM in [7] and 37.3 µM in test [8].
`S=C(Nc1ccc2cn[nH]c2c1)Nc1ccc2cn[nH]c2c1`: the concentration for total growth inhibition (TGI) in test [9], in test [10], in test [1], in test [3], in [4] and in test [5] was more than 100 µM throughout. Moreover, the TGI in [6], in test [7] and in test [8] was more than 100 µM each time.
For the compound `CSC1NC(c2ccc(Cl)cc2)=C(C#N)C(=O)N1C1OCC(OC(C)=O)C(OC(C)=O)C1OC(C)=O` (centres undefined), the TGI in test [9], in test [1], in test [2], in test [3], in test [4] and in test [5] was more than 100 µM in each case. Further, the total growth inhibition concentration (TGI) in [6], in [7] and in test [8] was more than 100 µM each time.
`COc1ccccc1C[C@@H]1OC2(C=CC(=O)C=C2)O[C@H]1Cc1ccccc1OC`: the TGI in [9] was 4.29 µM; in [10], 2.32 µM; in test [1] it was 18.8 µM; in [2] it was more than 50 µM; in [4], 18.9 µM; in test [5] it was 3.46 µM. In addition, the TGI was 6.24 µM in test [6], 16.1 µM in test [7] and 5.98 µM in [8].
Regarding `O=C1Nc2ccccc2Nc2ccncc21`, the TGI in test [10], in test [1], in test [2], in test [3], in [4] and in [5] was more than 100 µM in each case. Moreover, the TGI in [6], in test [7] and in [8] was more than 100 µM in each case.
Turning to `O=C(CCc1ccccc1)ON1C(=S)C(c2ccccc2)(c2ccccc2)N=C1Sc1ccccc1`, the TGI in [9] was more than 100 µM; in [10] it was more than 100 µM; in test [1], more than 100 µM; in [2], 28.6 µM; in test [4], more than 100 µM; in test [5], more than 100 µM. The compound also yielded a total growth inhibition concentration (TGI) in test [6] of 74.6 µM.
In the case of `CC(=O)Oc1ccc(/C=C/C(=O)O[C@@H](C(=O)O)[C@@H](OC(=O)/C=C/c2ccc(OC(C)=O)c(OC(C)=O)c2)C(=O)O)cc1OC(C)=O`, the TGI in test [9], in test [10], in test [1], in test [3], in [4] and in test [5] was more than 100 µM in each case. For the same compound, the TGI in test [6], in test [7] and in test [8] was more than 100 µM in each case.
`CCOC(=O)C1=C(C)N(c2ccc(OC)cc2)C2(O)C=CC(=O)C3=C(O)c4ccccc4C(=O)C312` (centres undefined): the concentration for total growth inhibition (TGI) in test [10] was found to be 23.4 µM; in test [1], 29.2 µM; in test [2], 20.5 µM; in test [3], 11.9 µM; in test [4] it was 11.7 µM; in [5], 81.1 µM. Further, the concentration for total growth inhibition (TGI) was 10.9 µM in test [6] and 29.8 µM in test [8].
For the compound `COc1ccc2c(OCc3nnc4ccc(-c5ccccc5)nn34)ccnc2c1`, the GI50 is more than 100 µM in test [1]; more than 100 µM in test [2]; 20.1 µM in test [3]; more than 100 µM in test [4]; more than 100 µM in test [6]; more than 100 µM in test [7]. In addition, the GI50 in test [8] is more than 100 µM. For the same compound, the TGI is more than 100 µM in test [1]; more than 100 µM in test [2]; more than 43.8 µM in test [3]; more than 100 µM in test [4]; more than 100 µM in [6]; more than 100 µM in test [7]. Besides, the TGI in [8] was more than 100 µM.
As for `CC(=O)N1CCn2c1nc1cc(Cl)ccc12`, the TGI in test [9], in test [10], in [1], in test [2], in test [3] and in test [4] was more than 100 µM in each case. Also, the total growth inhibition concentration (TGI) in test [5], in test [7] and in [8] was more than 100 µM each time.
In the case of `C[C@H]1S[C@H](c2c(Cl)cccc2Cl)N2Cc3ccccc3N=C12`, the TGI in [9] was 23 µM; in test [10], 16.3 µM; in test [1] it was 27.8 µM; in test [2] it was more than 100 µM; in test [4], 26.9 µM; in [6] it was more than 100 µM. In test [8], this compound registered a TGI of more than 100 µM.

The term TGI denotes the concentration giving total growth inhibition. Low readings indicate more potent growth arrest, high ones less potent growth arrest. What is called GI50 is the concentration at which growth is held to half of that of the control.
